Among the data in patent publication US9624180B2, “Squaric derivatives for the treatment of hepatitis C” (priority 2013, dated 2017) are EC50 values, retold here.

For the assay, the system named is HCV pseudoparticles (genotype 1a HCV E1 and E2 envelope, H77C isolate). The experiment in a line: HCV pseudoparticle infection assay (luciferase reporter, entry into Huh7 cells). The assay is classed as cell-based, HCV genotype 1a. Particulars: Hepatitis C virus, Huh-7, 48 h. A general note: Reporter assays use an easily measured gene product as a stand-in for the process of interest.

The mark [1] stands for this setting: read-out: EC50 (1a, nM), genotype 1a HCV pseudoparticles, Huh7 cells, luciferase 2 days after infection, average of duplicates.
[2] abbreviates: read-out: EC50 (1a, nM), genotype 1a HCV pseudoparticles, Huh7 cells, luciferase 2 days after infection, class symbol.

Where two headings read alike, the source gives them in different places.

In general, EC50 refers to the concentration giving half of the maximal effect. `COC(=O)[C@H](CNc1c(OC)c(=O)c1=O)NC(=O)c1ccc(Nc2nc(NC3(c4ccc(Cl)cc4)CC3)nc(OCC(F)(F)F)n2)cc1` [Compound 1001, (S)-methyl 2-(4-(4-(1-(4-chlorophenyl)cyclopropylamino)-6-(2,2,2-trifluoroethoxy)-1,3,5-triazin-2-ylamino)benzamido)-3-(2-methoxy-3,4-dioxocyclobut-1-enylamino)propanoate]: the EC50 under setting [1] worked out at 117 nM and the EC50 under setting [2] is 10 to 1000 nM. `CCOc1c(NC[C@H](NC(=O)c2ccc(Nc3nc(NC4(c5ccc(Cl)cc5)CC4)nc(OCC(F)(F)F)n3)cc2)C(=O)OC)c(=O)c1=O` [Compound 1002, (S)-methyl 2-(4-(4-(1-(4-chlorophenyl)cyclopropylamino)-6-(2,2,2-trifluoroethoxy)-1,3,5-triazin-2-ylamino)benzamido)-3-(2-ethoxy-3,4-dioxocyclobut-1-enylamino)propanoate]: the half-maximal effective concentration (EC50) under setting [2] lay in the range of 10 to 1000 nM.

On to `COC(=O)[C@H](CNc1c(O)c(=O)c1=O)NC(=O)c1ccc(Nc2nc(NC3(c4ccc(Cl)cc4)CC3)nc(OCC(F)(F)F)n2)cc1` [Compound 1003, (S)-methyl 2-(4-(4-(1-(4-chlorophenyl)cyclopropylamino)-6-(2,2,2-trifluoroethoxy)-1,3,5-triazin-2-ylamino)benzamido)-3-(2-hydroxy-3,4-dioxocyclobut-1-enylamino)propanoate], for which the EC50 runs as follows: under setting [1], 47 nM; under setting [2], 10 to 1000 nM. On to `CCOc1c(NC[C@H](NC(=O)c2ccc(Nc3nc(NC4(c5ccc(Cl)cc5)CC4)nc(OCC(F)(F)F)n3)cc2)C(=O)O)c(=O)c1=O` [Compound 1004, (S)-2-(4-(4-(1-(4-chlorophenyl)cyclopropylamino)-6-(2,2,2-trifluoroethoxy)-1,3,5-triazin-2-ylamino)benzamido)-3-(2-ethoxy-3,4-dioxocyclobut-1-enylamino)propanoic acid], for which the concentration for a half-maximal effect (EC50) under setting [2] fell in the range of 10 to 1000 nM. `CCOc1c(NCC(C)(C)CNC(=O)c2ccc(Nc3nc(NC4(c5ccc(Cl)cc5)CC4)nc(OCC(F)(F)F)n3)cc2)c(=O)c1=O` [Compound 1005, 4-((4-((1-(4-chlorophenyl)cyclopropyl)amino)-6-(2,2,2-trifluoroethoxy)-1,3,5-triazin-2-yl)amino)-N-(3-((2-ethoxy-3,4-dioxocyclobut-1-en-1-yl)amino)-2,2-dimethylpropyl)benzamide]: the half-maximal effective concentration (EC50) under setting [2] lay in the range of 0.01 to 10 nM. Turning to `CC(C)(CNC(=O)c1ccc(Nc2nc(NC3(c4ccc(Cl)cc4)CC3)nc(OCC(F)(F)F)n2)cc1)CNc1c(O)c(=O)c1=O` [Compound 1006], the EC50 reads like this: under setting [1], 0.52 nM; under setting [2], 0.01 to 10 nM. With `CC(C)(CNC(=O)c1ccc(Nc2nc(NC3(c4ccc(Cl)cc4)CC3)nc(OCC(F)(F)F)n2)cc1)CNc1c(NCC2CC2)c(=O)c1=O` [Compound 1007], the EC50 under setting [2] lay within 0.01 to 10 nM. As to `CC(C)(CNC(=O)c1ccc(Nc2nc(NC3(c4ccc(Cl)cc4)CC3)nc(OCC(F)(F)F)n2)cc1)CNc1c(NCc2ccc(F)cc2F)c(=O)c1=O` [Compound 1008], the concentration for a half-maximal effect (EC50) was 0.05 nM under setting [1] and 0.01 to 10 nM under setting [2]. On to `CC(C)(CNC(=O)c1ccc(Nc2nc(NC3(c4ccc(Cl)cc4)CC3)nc(OCC(F)(F)F)n2)cc1)CNc1c(NC2CCCCCC2)c(=O)c1=O` [Compound 1009], for which, under setting [2], the EC50 was 0.01 to 10 nM.

For the compound `CC(C)(CNC(=O)c1ccc(Nc2nc(NC3(c4ccc(Cl)cc4)CC3)nc(OCC(F)(F)F)n2)cc1)CNc1c(NCC2(CN3CCCC3)CC2)c(=O)c1=O` [Compound 1010], the concentration giving a half-maximal response (EC50) under setting [2] is 0.01 to 10 nM. In the case of `O=C(N[C@@H](CCNc1c(NCC2CC2)c(=O)c1=O)C(=O)NCC1CC1)c1ccc(Nc2nc(NC3(c4ccc(Cl)cc4)CC3)nc(OCC(F)(F)F)n2)cc1` [Compound 1011], the half-maximal effective concentration (EC50) under setting [1] was 5.98 nM and the concentration for a half-maximal effect (EC50) under setting [2] fell in the range of 0.01 to 10 nM. Regarding `O=C(N[C@@H](CCNc1c(NC2CCCCCCC2)c(=O)c1=O)C(=O)O)c1ccc(Nc2nc(NC3(c4ccc(Cl)cc4)CC3)nc(OCC(F)(F)F)n2)cc1` [Compound 1012], under setting [2], the EC50 was in the range of 0.01 to 10 nM. The same measure, in the same setting: under `CC(C)(CNC(=O)c1ccc(Nc2nc(NC3(c4ccc(Cl)cc4)CC3)nc(OCC(F)(F)F)n2)cc1)CNc1c(Nc2ccccc2)c(=O)c1=O` [Compound 1013] stands 0.01 to 10 nM; under `O=C(N[C@@H](CCNc1c(Nc2ccccc2)c(=O)c1=O)C(=O)Nc1ccccc1)c1ccc(Nc2nc(NC3(c4ccc(Cl)cc4)CC3)nc(OCC(F)(F)F)n2)cc1` [Compound 1014], 10 to 1000 nM. As for `O=C(N[C@@H](CCNc1c(NCC2(Cn3ccnc3)CC2)c(=O)c1=O)C(=O)O)c1ccc(Nc2nc(NC3(c4ccc(Cl)cc4)CC3)nc(OCC(F)(F)F)n2)cc1` [Compound 1015], the concentration giving a half-maximal response (EC50) by setting is: under setting [1], 6.55 nM; under setting [2], 0.01 to 10 nM. For the compound `O=C(N[C@@H](CCNc1c(Nc2ccccc2)c(=O)c1=O)C(=O)O)c1ccc(Nc2nc(NC3(c4ccc(Cl)cc4)CC3)nc(OCC(F)(F)F)n2)cc1` [Compound 1016], the concentration giving a half-maximal response (EC50) under setting [2] lay in the range of 0.01 to 10 nM. Same read-out and setting: then `O=C(N[C@@H](CCNc1c(N[C@@H]2C[C@H]3CC[C@@H]2C3)c(=O)c1=O)C(=O)O)c1ccc(Nc2nc(NC3(c4ccc(Cl)cc4)CC3)nc(OCC(F)(F)F)n2)cc1` [Compound 1017], with 0.01 to 10 nM; and `O=C(N[C@@H](CCNc1c(NC2CCCCCC2)c(=O)c1=O)C(=O)NC1CCCCCC1)c1ccc(Nc2nc(NC3(c4ccc(Cl)cc4)CC3)nc(OCC(F)(F)F)n2)cc1` [Compound 1018], with 0.01 to 10 nM. Regarding `O=C(N[C@@H](CCNc1c(N[C@@H]2C[C@H]3CC[C@@H]2C3)c(=O)c1=O)C(=O)N[C@@H]1C[C@H]2CC[C@@H]1C2)c1ccc(Nc2nc(NC3(c4ccc(Cl)cc4)CC3)nc(OCC(F)(F)F)n2)cc1` [Compound 1019], the 50% effective concentration (EC50) under setting [2] fell in the range of 10 to 1000 nM. `O=C(N[C@@H](CCNc1c(NCc2ccc(F)cc2F)c(=O)c1=O)C(=O)NCc1ccc(F)cc1F)c1ccc(Nc2nc(NC3(c4ccc(Cl)cc4)CC3)nc(OCC(F)(F)F)n2)cc1` [Compound 1020]: the EC50 under setting [2] lay within 0.01 to 10 nM. Consider `CCOC(=O)[C@H](CCNc1c(NC2CCCCCC2)c(=O)c1=O)NC(=O)c1ccc(Nc2nc(NC3(c4ccc(Cl)cc4)CC3)nc(OCC(F)(F)F)n2)cc1` [Compound 1021], for which the 50% effective concentration (EC50) under setting [1] amounted to 1.24 nM and the concentration for a half-maximal effect (EC50) under setting [2] was in the range of 0.01 to 10 nM.
